Measured values from patent publication US4220755A, “Fortimicin B derivatives and process for production thereof” (Abbott Laboratories, priority 1976, dated 1980).
Values after ≈ are worked out from the molar mass of the structure shown. Read-outs that look alike come from different tables or passages of the source.

Tests used:
[1] = system: Bacillus subtilis KY4273; assay: MIC, agar dilution method, pH 8.0; format: cell-based; conditions: pH 8.0; Bacillus subtilis KY4273; read-out: Minimum inhibition concentration (MIC), BS
Experimental: (§1) Measurement was carried out according to the agar dilution method, using a medium of pH 8.0, or the Japanese Antibiotic Medicament Standard, using a medium of pH 7.2 Units are in mcg/ml.
B.S.: Bacillus subtilis KY4273

[2] = system: Salmonella typhosa KY4278 ATCC9992; assay: MIC, agar dilution method, pH 8.0; format: cell-based; conditions: Salmonella enterica, pH 8, read-out: Minimum inhibition concentration (MIC), ST
Experimental: as §1
S.T.: Salmonella typhosa KY4278 ATCC9992

[3] = system: Eschericihia coli 3100; assay: MIC, agar dilution method, pH 7.2; format: cell-based, Escherichia coli; conditions: Escherichia coli; pH 7.2; E. coli 3100; read-out: Minimum inhibition concentration (MIC)
Experimental: as §1

[4] = system: Escherichia coli R17 Z343; assay: MIC, agar dilution method, pH 7.2; format: cell-based
Experimental: as §1
(§2) 3: kanamycin, producing acetyltransferase.

[5] = system: Pseudomonas aeruginosa R9 KY8516; assay: MIC, agar dilution method, pH 7.2; format: cell-based; conditions: R9KY8516, pH 7.2, P. aeruginosa R9 KY8516, 3**: kanamycin, producing acetyltransferase, read-out: Minimum inhibition concentration (MIC)
Experimental: as §1, §2

[6] = system: Serratia marcescens 1065; assay: MIC, agar dilution method, pH 7.2; format: cell-based; conditions: Serratia marcescens, 1065, pH 7.2, read-out: Minimum inhibition concentration (MIC)
Experimental: as §1, §2

[7] = system: Proteus vulgaris KY4277 ATCC6897; assay: MIC, agar dilution method, pH 8.0; format: cell-based; conditions: ATCC6897; pH 8.0; Proteus vulgaris KY4277; read-out: Minimum inhibition concentration (MIC), PV
Experimental: as §1

[8] = system: Shigella sonnei KY4281 ATCC9290; assay: MIC, agar dilution method, pH 8.0; format: cell-based; conditions: ATCC9290; pH 8.0; Shigella sonnei KY4281; read-out: Minimum inhibition concentration (MIC), SS
Experimental: as §1

[9] = system: Pseudomonas aeruginosa R5 KY8512; assay: MIC, agar dilution method, pH 7.2; format: cell-based; conditions: R5KY8512, pH 7.2, P. aeruginosa R5 KY8512, 6**: neomycin, producing phosphotransferase type I and type II, read-out: Minimum inhibition concentration (MIC)
Experimental: as §1
6: neomycin, producing phosphotransferase type I and type II.

[10] = system: Escherichia coli R19 KY8348; assay: MIC, agar dilution method, pH 7.2; format: cell-based; conditions: R19KY8348, pH 7.2, E. coli R19 KY8348, 4**: gentamicin, producing acetyltransferase type I, read-out: Minimum inhibition concentration (MIC)
Experimental: as §1
(§3) 4: gentamicin, producing acetyltransferase type I.

[11] = system: Pseudomonas aeruginosa R4 KY8511; assay: MIC, agar dilution method, pH 7.2; format: cell-based; conditions: R4KY8511, pH 7.2, P. aeruginosa R4 KY8511, 4**: gentamicin, producing acetyltransferase type I, read-out: Minimum inhibition concentration (MIC)
Experimental: as §1, §3

[12] = system: Staphylococcus a ureus 226; assay: MIC, agar dilution method, pH 7.2; format: cell-based, Staphylococcus aureus; conditions: pH 7.2; Staphylococcus aureus 226; read-out: Minimum inhibition concentration (MIC)
Experimental: as §1

[13] = system: Escherichia coli R12 Z-338; assay: MIC, agar dilution method, pH 7.2; format: cell-based
Experimental: as §1
(§4) **1: gentamicin, producing adenylsynthetase.

[14] = system: Escherichia coli 57R/W677; assay: MIC, agar dilution method, pH 7.2; format: cell-based; conditions: 57R/W677, pH 7.2, read-out: Minimum inhibition concentration (MIC)
Experimental: as §1, §4

[15] = system: Escherichia coli 76-2; assay: MIC, agar dilution method, pH 7.2; format: cell-based
Experimental: as §1, §4

[16] = system: Klebsiella pneumoniae 3020 Y-60; assay: MIC, agar dilution method, pH 7.2; format: cell-based; conditions: 3020Y60; pH 7.2; Klebsiella pneumoniae 3020 Y-60; 1**: gentamicin, producing adenylsynthetase; read-out: Minimum inhibition concentration (MIC)
Experimental: as §1, §4

[17] = system: Staphylococcus aureus KY4279 ATCC6538P; assay: MIC, agar dilution method, pH 8.0; format: cell-based; conditions: pH 8.0, Staphylococcus aureus KY4279, read-out: Minimum inhibition concentration (MIC), SA
Experimental: as §1
S.A.: Staphylococcus aureus KY4279 ATCC6538P

[18] = system: Eschericia coli KY4271 ATCC26; assay: MIC, agar dilution method, pH 8.0; format: cell-based; conditions: Escherichia coli, ATCC26; pH 8.0; E. coli KY4271; read-out: Minimum inhibition concentration (MIC), EC
Experimental: as §1
E.C.: Eschericia coli KY4271 ATCC26

[19] = system: Escherichia coli R18 KY8321; assay: MIC, agar dilution method, pH 7.2; format: cell-based; conditions: R18KY8321, E. coli R18 KY8321, 2**: gentamicin, producing adenylsynthetase and neomycin phosphotransferase type II, read-out: Minimum inhibition concentration (MIC)
Experimental: as §1
2: gentamicin, producing adenylsynthetase and neomycin phosphotransferase

[20] = system: Escherichia coli R20 KY8349; assay: MIC, agar dilution method, pH 7.2; format: cell-based
Experimental: as §1
5: neomycin, producing phosphotransferase type I.

[21] = system: Shigella sonnei ATCC9290; assay: MIC, agar dilution method, pH 7.2; format: cell-based; conditions: read-out: Minimum inhibition concentration (MIC)
Experimental: as §1

[22] = system: Staphylococcus aureus 209-P; assay: MIC, agar dilution method, pH 7.2; format: cell-based; conditions: pH 7.2; Staphylococcus aureus 209-P; read-out: Minimum inhibition concentration (MIC)
Experimental: as §1

[23] = system: Klebsiella pneumoniae KY4274; assay: MIC, agar dilution method, pH 7.2; format: cell-based
Experimental: as §1

[24] = system: Salmonella enteritidis G-14; assay: MIC, agar dilution method, pH 7.2; format: cell-based; conditions: Salmonella enterica
Experimental: as §1

[25] = system: Staphylococcus aureus Smith (A); assay: MIC, agar dilution method, pH 7.2; format: cell-based; conditions: pH 7.2; Staphylococcus aureus Smith (A); read-out: Minimum inhibition concentration (MIC)
Experimental: as §1

[26] = system: Eschericihia coli GN2411-5; assay: MIC, agar dilution method, pH 7.2; format: cell-based; conditions: Escherichia coli, GN2411, pH 7.2, read-out: Minimum inhibition concentration (MIC)
Experimental: as §1

[27] = system: Proteus vulgaris JJ; assay: MIC, agar dilution method, pH 7.2; format: cell-based
Experimental: as §1

[28] = system: Pseudomonas aeruginosa BMH# 1; assay: MIC, agar dilution method, pH 7.2; format: cell-based; conditions: pH 7.2; Pseudomonas aeruginosa BMH# 1; read-out: Minimum inhibition concentration (MIC)
Experimental: as §1

[29] = system: Escherichia coli NIHTC-2; assay: MIC, agar dilution method, pH 7.2; format: cell-based
Experimental: as §1

[30] = system: Pseudomonas aeruginosa UCLA 4184; assay: MIC, agar dilution method, pH 7.2; format: cell-based; conditions: UCLA4184; pH 7.2; Pseudomonas aeruginosa UCLA 4184; read-out: Minimum inhibition concentration (MIC)
Experimental: as §1

[31] = system: Providencia sp 164; assay: MIC, agar dilution method, pH 7.2; format: cell-based; conditions: pH 7.2; Providencia sp 164; 7**: gentamicin, producing acetyltransferase type II; read-out: Minimum inhibition concentration (MIC)
Experimental: as §1
7: gentamicin, producing acetyltransferase type II.

[32] = system: Klebsiella pneumoniae KY4275 ATCC10031; assay: MIC, agar dilution method, pH 8.0; format: cell-based; conditions: ATCC10031; pH 8.0; Klebsiella pneumoniae KY4275; read-out: Minimum inhibition concentration (MIC), KP
Experimental: as §1
K.P.: Klebsiella pneumoniae KY4275 ATCC10031.

| SMILES | MIC [1] | MIC [2] | MIC [3] | MIC [5] | MIC [6] | MIC [7] | MIC [8] | MIC [9] | MIC [10] | MIC [11] | MIC [12] | MIC [14] | MIC [16] | MIC [17] | MIC [18] | MIC [19] | MIC [21] | MIC [22] | MIC [25] | MIC [26] | further results |
| --- | --- | --- | --- | --- | --- | --- | --- | --- | --- | --- | --- | --- | --- | --- | --- | --- | --- | --- | --- | --- | --- |
| CNCC[C@H](O)CN(C)[C@H]1[C@@H](O)[C@H](O[C@H]2O[C@H]([C@H](C)N)CC[C@H]2N)[C@@H](N)[C@H](O)[C@@H]1OC [Compound 28, 4-N-[(S)-4-methylamino-2-hydroxybutyl]fortimicin B] | 0.04 mg/L (≈ 0.089 µM) | 0.08 mg/L (≈ 0.178 µM) | 12.5 mg/L (≈ 27.8 µM) | 50 mg/L (≈ 111 µM) | 6.25 mg/L (≈ 13.9 µM) | 0.32 mg/L (≈ 0.712 µM) | 0.63 mg/L (≈ 1.4 µM) | 12.5 mg/L (≈ 27.8 µM) | > 100 mg/L | > 100 mg/L | 0.4 mg/L (≈ 0.89 µM) | 12.5 mg/L (≈ 27.8 µM) | 12.5 mg/L (≈ 27.8 µM) | 0.04 mg/L (≈ 0.089 µM) | 0.08 mg/L (≈ 0.178 µM) | 12.5 mg/L (≈ 27.8 µM) | 6.25 mg/L (≈ 13.9 µM) | 0.78 mg/L (≈ 1.73 µM) | 0.4 mg/L (≈ 0.89 µM) | 6.25 mg/L (≈ 13.9 µM) | MIC ([4]; R17Z343, pH 7.2, E. coli R17 Z343, 3**: kanamycin, producing acetyltransferase, read-out: Minimum inhibition concentration (MIC)): 3.12 mg/L (≈ 6.94 µM); MIC ([13]; R12Z338, pH 7.2, read-out: Minimum inhibition concentration (MIC)): 6.25 mg/L (≈ 13.9 µM); MIC ([15]; Escherichia coli, 762, pH 7.2, E. coli 76-2, 1**: gentamicin, producing adenylsynthetase, read-out: Minimum inhibition concentration (MIC)): 3.12 mg/L (≈ 6.94 µM); MIC ([20]; R20KY8349, pH 7.2, read-out: Minimum inhibition concentration (MIC)): 1.25 mg/L (≈ 2.78 µM); MIC ([23]; pH 7.2, Klebsiella pneumoniae KY4274, read-out: Minimum inhibition concentration (MIC)): 3.12 mg/L (≈ 6.94 µM); MIC ([24]; pH 7.2, Salmonella enteritidis G-14, read-out: Minimum inhibition concentration (MIC)): 3.12 mg/L (≈ 6.94 µM); MIC ([27]; pH 7.2, Proteus vulgaris JJ, read-out: Minimum inhibition concentration (MIC)): 3.12 mg/L (≈ 6.94 µM); MIC [28]: 12.5 mg/L (≈ 27.8 µM); MIC ([29]; NIHTC2, pH 7.2, Escherichia coli NIHTC-2, read-out: Minimum inhibition concentration (MIC)): 1.56 mg/L (≈ 3.47 µM); MIC [30]: 50 mg/L (≈ 111 µM); MIC [31]: 25 mg/L (≈ 55.6 µM); MIC [32]: 0.32 mg/L (≈ 0.712 µM) |
| CO[C@H]1[C@@H](O)[C@H](N)[C@@H](O[C@H]2O[C@H]([C@H](C)N)CC[C@H]2N)[C@H](O)[C@@H]1N(C)CC(O)CCN (stereo partly drawn) [Compound 29, 4-N-[(R,S)-4-amino-2-hydroxybutyl]fortimicin B] | 0.04 mg/L (≈ 0.0918 µM) | 0.16 mg/L (≈ 0.367 µM) | 12.5 mg/L (≈ 28.7 µM) | 50 mg/L (≈ 115 µM) | 6.25 mg/L (≈ 14.3 µM) | 0.32 mg/L (≈ 0.735 µM) | 0.63 mg/L (≈ 1.45 µM) | 12.5 mg/L (≈ 28.7 µM) | > 100 mg/L | > 100 mg/L | 0.78 mg/L (≈ 1.79 µM) | 12.5 mg/L (≈ 28.7 µM) | 25 mg/L (≈ 57.4 µM) | 0.08 mg/L (≈ 0.184 µM) | 0.16 mg/L (≈ 0.367 µM) | 12.5 mg/L (≈ 28.7 µM) | 6.25 mg/L (≈ 14.3 µM) | 0.4 mg/L (≈ 0.918 µM) | 0.4 mg/L (≈ 0.918 µM) | 6.25 mg/L (≈ 14.3 µM) | MIC ([4]; R17Z343, pH 7.2, read-out: Minimum inhibition concentration (MIC)): 3.12 mg/L (≈ 7.16 µM); MIC ([13]; R12Z338, pH 7.2, E. coli R12 Z-338, 1**: gentamicin, producing adenylsynthetase, read-out: Minimum inhibition concentration (MIC)): 12.5 mg/L (≈ 28.7 µM); MIC ([15]; Escherichia coli, 762, pH 7.2, read-out: Minimum inhibition concentration (MIC)): 3.12 mg/L (≈ 7.16 µM); MIC ([20]; R20KY8349, pH 7.2, E. coli R20 KY8349, 5**: neomycin, producing phosphotransferase type I, read-out: Minimum inhibition concentration (MIC)): 3.12 mg/L (≈ 7.16 µM); MIC ([23]; Klebsiella pneumoniae, KY4274, pH 7.2, read-out: Minimum inhibition concentration (MIC)): 6.25 mg/L (≈ 14.3 µM); MIC ([24]; ENTERITIDIS, pH 7.2, read-out: Minimum inhibition concentration (MIC)): 6.25 mg/L (≈ 14.3 µM); MIC ([27]; Proteus vulgaris, pH 7.2, read-out: Minimum inhibition concentration (MIC)): 3.12 mg/L (≈ 7.16 µM); MIC [28]: 12.5 mg/L (≈ 28.7 µM); MIC ([29]; Escherichia coli, NIHTC2, pH 7.2, read-out: Minimum inhibition concentration (MIC)): 3.12 mg/L (≈ 7.16 µM); MIC [30]: 25 mg/L (≈ 57.4 µM); MIC [31]: 25 mg/L (≈ 57.4 µM); MIC [32]: 0.63 mg/L (≈ 1.45 µM) |
